IC50 data for two compounds are collected here from ChEMBL document CHEMBL1144802, “Cytotoxic xanthones from Psorospermum molluscum from the Madagascar rain forest” (J Nat Prod, 2008).

The subject of one assay is A2780. Description: Cytotoxicity against human A2780 cells. It is filed as functional, cell-based.
For the next assay, the system named is HCT-116. The assay is described as follows: Cytotoxicity against human HCT116 cells. The assay is classed as functional, cell-based.
The subject of the next assay is ABAE. Description: Cytotoxicity against bovine ABAE cells. It is filed as functional, cell-based, Bos taurus.
Another assay has as its system SK-BR-3. The assay is described as follows: Cytotoxicity against human SKBR3 cells. The assay is classed as functional, cell-based.

With `O=c1c2c(O)cccc2oc2ccc3c(c12)CC(C1(CO)CO1)O3` (configuration not stated) [PSOROXANTHIN], the concentration for half-maximal inhibition (IC50) – broadly, the concentration that inhibits the measured activity by half – in the assay on A2780 was found to be 330 nM; with HCT-116 it was 1000 nM; in the assay on ABAE, 102 nM.
As for `O=c1c2c(O)cccc2oc2ccc3c(c12)CC(C(O)(CO)CCl)O3` (configuration not stated) [PSOROXANTHIN CHLOROHYDRIN], the IC50 in the assay with A2780 amounted to 42 nM; in the assay with HCT-116, 68 nM; with ABAE, 4 nM; in the assay on SK-BR-3, 2000 nM.
